This passage reports inhibition, Ki and Selectivity ratio results from ChEMBL document CHEMBL1136236, “Design and parallel synthesis of piperidine libraries targeting the nociceptin (N/OFQ) receptor” (Bioorg Med Chem Lett, 2003).

Activity calls are given as the source filed them. The rule behind the calls is not given here.

T1 sequence (P41146 whole entry): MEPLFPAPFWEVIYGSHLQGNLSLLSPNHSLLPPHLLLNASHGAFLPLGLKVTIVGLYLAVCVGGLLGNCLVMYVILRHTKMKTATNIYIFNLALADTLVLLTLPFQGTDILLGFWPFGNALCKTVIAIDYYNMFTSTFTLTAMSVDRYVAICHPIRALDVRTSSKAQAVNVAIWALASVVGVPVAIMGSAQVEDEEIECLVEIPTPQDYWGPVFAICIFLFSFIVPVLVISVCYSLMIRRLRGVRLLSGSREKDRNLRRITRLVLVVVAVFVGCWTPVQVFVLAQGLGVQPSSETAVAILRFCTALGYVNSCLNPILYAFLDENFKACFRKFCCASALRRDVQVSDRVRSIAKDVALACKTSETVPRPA

The first assay addresses T1, Nociceptin receptor (Homo sapiens, UniProt P41146). Description: Inhibitory activity against human orphanin FQ receptor expressed in recombinant HEK 293 cells; in active. The assay is classed as cell-based. The conditions noted are these: HEK293.
For orientation: inhibition means the drop in the measured response relative to a control, in per cent. Take `N#Cc1ccc(CN2CCC(O)(c3ccc(Cl)c(C(F)(F)F)c3)CC2)cc1`: the inhibition entry was “inactive”.

The target in the next assay is T1, Nociceptin receptor. Description: Antagonistic activity against orphan FQ receptor. The assay is classed as functional.
Conditions: not given
What is called Ki is the dissociation constant of the complex between target and ligand, obtained from inhibition or displacement. Compound `CC(C)C1CCC(N2CCC(O)(c3ccc(Cl)c(C(F)(F)F)c3)CC2)CC1` (configuration not stated) had an inhibition constant (Ki) of 33 nM.
Compound `OC1(c2ccc(Cl)c(C(F)(F)F)c2)CCN(CC2CCCCCCC2)CC1` registered a Ki of 47 nM.
In turn, `CCCC1CCC(N2CCC(O)(c3cccc(C(F)(F)F)c3)CC2)CC1` (configuration not stated) yielded a Ki of 135 nM.
On to `OC1(c2cccc(C(F)(F)F)c2)CCN(C2CCC3CCCCC3C2)CC1` (configuration not stated), for which the Ki is 12 nM.
On the same count and under the same terms, with `OC1(c2ccc(Cl)c(C(F)(F)F)c2)CCN(CCC(c2ccccc2)c2ccccc2)CC1` the figure was 225 nM; with `OC1(c2ccc(Cl)c(C(F)(F)F)c2)CCN(C2Cc3ccccc3C2)CC1`, 82 nM.
`OC1(c2ccc(Cl)cc2)CCN(CC2CCCCCCC2)CC1` registered a Ki of 502 nM.
The compound `OC1(c2cccc(C(F)(F)F)c2)CCN(CC2CCCCCCC2)CC1` registered a Ki of 102 nM.
Same read-out and setting: the same measure for `OC1(c2cccc(C(F)(F)F)c2)CCN(CCC(c2ccccc2)c2ccccc2)CC1`: 116 nM.

The target of a further assay is T2, Mu-type opioid receptor (Homo sapiens, UniProt P35372). Description: Selectivity ratio of Opioid receptor mu 1 binding to Orphanin FQ receptor.
T2 sequence (P35372 whole entry): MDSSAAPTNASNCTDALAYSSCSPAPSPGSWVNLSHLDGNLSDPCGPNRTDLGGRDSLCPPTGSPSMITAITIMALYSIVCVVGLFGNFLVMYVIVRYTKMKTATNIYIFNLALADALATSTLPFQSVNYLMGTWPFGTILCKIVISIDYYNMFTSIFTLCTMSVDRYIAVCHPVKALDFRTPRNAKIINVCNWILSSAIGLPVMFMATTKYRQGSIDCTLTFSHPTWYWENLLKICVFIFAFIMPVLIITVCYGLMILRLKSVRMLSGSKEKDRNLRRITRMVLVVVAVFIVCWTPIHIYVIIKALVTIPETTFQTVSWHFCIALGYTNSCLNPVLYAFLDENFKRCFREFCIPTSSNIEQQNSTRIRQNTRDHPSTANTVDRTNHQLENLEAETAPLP
Conditions: not given
For the compound `CC(C)C1CCC(N2CCC(O)(c3ccc(Cl)c(C(F)(F)F)c3)CC2)CC1` (configuration not stated), the Selectivity ratio was 0.24.
Turning to `OC1(c2ccc(Cl)c(C(F)(F)F)c2)CCN(CC2CCCCCCC2)CC1`, the Selectivity ratio was determined as 2.64.
For the compound `CCCC1CCC(N2CCC(O)(c3cccc(C(F)(F)F)c3)CC2)CC1` (configuration not stated), the Selectivity ratio amounted to 0.34.
On to `OC1(c2cccc(C(F)(F)F)c2)CCN(C2CCC3CCCCC3C2)CC1` (configuration not stated), for which the Selectivity ratio turned out to be 1.75.
Still for that read-out and setting: with `OC1(c2ccc(Cl)c(C(F)(F)F)c2)CCN(CCC(c2ccccc2)c2ccccc2)CC1` the figure was 0.02; with `OC1(c2ccc(Cl)c(C(F)(F)F)c2)CCN(C2Cc3ccccc3C2)CC1`, 0.23.
Regarding `OC1(c2ccc(Cl)cc2)CCN(CC2CCCCCCC2)CC1`, the Selectivity ratio was determined as 1.25.
For `OC1(c2cccc(C(F)(F)F)c2)CCN(CC2CCCCCCC2)CC1`, the Selectivity ratio came to 1.11.
On to `OC1(c2cccc(C(F)(F)F)c2)CCN(CCC(c2ccccc2)c2ccccc2)CC1`, for which the Selectivity ratio stood at 0.01.

In a further assay the target is T1, Nociceptin receptor. Description: Binding affinity against human orphanin FQ receptor expressed in recombinant HEK 293 cells. The assay is classed as cell-based, HEK293.
Conditions: not given
For the compound `N#CC1(c2ccccc2)CCN(Cc2ccc3ccccc3c2)CC1`, the Ki was 1110 nM.
The same measure, in the same setting: the same measure for `N#CC1(c2ccccc2)CCN(Cc2ccc(F)cc2)CC1`: above 10000 nM.
The same measure, in the same setting: the same measure for `OC1(c2cccc(C(F)(F)F)c2)CCN(Cc2ccc3ccccc3c2)CC1`: 715 nM; for `OC1(c2cccc(C(F)(F)F)c2)CCN(Cc2ccc(C(F)(F)F)cc2)CC1`: 6520 nM; for `OC1(c2ccc(Cl)cc2)CCN(Cc2ccc(C(F)(F)F)cc2)CC1`: 307 nM.
For the compound `N#CC1(c2ccccc2)CCN(Cc2ccc(Cl)c(Cl)c2)CC1`, the Ki was 1270 nM.
Consider `N#CC1(c2ccccc2)CCN(Cc2cccc3ccccc23)CC1`, for which the Ki was determined as 827 nM.
As to `OC1(c2ccc(Cl)c(C(F)(F)F)c2)CCN(Cc2ccc3ccccc3c2)CC1`, the Ki was determined as 879 nM.
Same read-out and setting: with `OC1(c2cccc(C(F)(F)F)c2)CCN(Cc2ccc(F)cc2)CC1` the figure was 692 nM.
Still for that read-out and setting: the same measure for `OC1(c2ccc(Cl)c(C(F)(F)F)c2)CCN(Cc2ccc(F)cc2)CC1`: 234 nM; for `OC1(c2ccc(Cl)c(C(F)(F)F)c2)CCN(Cc2ccc(C(F)(F)F)cc2)CC1`: 1190 nM; for `O=C(COCc1ccccc1)N1CCC(O)(c2ccc(Br)cc2)CC1`: above 10000 nM.
With `O=[N+]([O-])c1ccc(CN2CCC(O)(c3ccc(Cl)c(C(F)(F)F)c3)CC2)o1`, the inhibitory constant (Ki) is above 10000 nM.
For the compound `OC1(c2ccc(Cl)cc2)CCN(Cc2ccc3ccccc3c2)CC1`, the Ki was found to be 153 nM.
With `Cc1ccc2ccccc2c1CN1CCC(C#N)(c2ccccc2)CC1`, the Ki is above 10000 nM.
Same read-out and setting: the same measure for `N#Cc1ccc(CN2CCC(O)(c3ccc(Cl)c(C(F)(F)F)c3)CC2)cc1`: above 10000 nM.

The target in a further assay is T3, Kappa-type opioid receptor (Homo sapiens, UniProt P41145). Description: Antagonistic activity against opioid receptor kappa 1; not active. The assay is classed as functional.
T3 sequence (P41145 whole entry): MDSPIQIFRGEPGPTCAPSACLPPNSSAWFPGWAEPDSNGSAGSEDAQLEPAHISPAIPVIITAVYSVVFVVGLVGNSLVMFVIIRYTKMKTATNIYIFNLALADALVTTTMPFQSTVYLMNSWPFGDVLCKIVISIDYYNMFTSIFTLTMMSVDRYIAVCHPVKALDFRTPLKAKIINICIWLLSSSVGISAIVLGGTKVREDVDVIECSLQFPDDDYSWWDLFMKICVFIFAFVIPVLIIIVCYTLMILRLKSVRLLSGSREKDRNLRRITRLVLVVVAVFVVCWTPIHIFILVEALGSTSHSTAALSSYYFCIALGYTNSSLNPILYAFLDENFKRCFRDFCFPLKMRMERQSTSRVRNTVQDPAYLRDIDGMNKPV
Conditions: not given
With `CC(C)C1CCC(N2CCC(O)(c3ccc(Cl)c(C(F)(F)F)c3)CC2)CC1` (configuration not stated), the Ki entry was “Not Active”.
Regarding `OC1(c2cccc(C(F)(F)F)c2)CCN(C2CCC3CCCCC3C2)CC1` (configuration not stated), the Ki result was “Not Active”.
Still for that read-out and setting: with `OC1(c2ccc(Cl)c(C(F)(F)F)c2)CCN(CCC(c2ccccc2)c2ccccc2)CC1` the entry was “Not Active”; with `OC1(c2ccc(Cl)c(C(F)(F)F)c2)CCN(C2Cc3ccccc3C2)CC1`, “Not Active”; with `OC1(c2ccc(Cl)cc2)CCN(CC2CCCCCCC2)CC1`, “Not Active”.
Regarding `OC1(c2cccc(C(F)(F)F)c2)CCN(CCC(c2ccccc2)c2ccccc2)CC1`, the Ki entry is recorded as “Not Active”.

Another assay deals with T2, Mu-type opioid receptor. Briefly: Antagonistic activity against opioid receptor mu1. The assay is classed as functional.
Conditions: not given
Consider `CC(C)C1CCC(N2CCC(O)(c3ccc(Cl)c(C(F)(F)F)c3)CC2)CC1` (configuration not stated), for which the Ki came to 8 nM.
Still for that read-out and setting: with `OC1(c2ccc(Cl)c(C(F)(F)F)c2)CCN(CC2CCCCCCC2)CC1` the figure was 124 nM; with `CCCC1CCC(N2CCC(O)(c3cccc(C(F)(F)F)c3)CC2)CC1` (configuration not stated), 46 nM; with `OC1(c2cccc(C(F)(F)F)c2)CCN(C2CCC3CCCCC3C2)CC1` (configuration not stated), 21 nM.
Turning to `OC1(c2ccc(Cl)c(C(F)(F)F)c2)CCN(CCC(c2ccccc2)c2ccccc2)CC1`, the Ki amounted to 4 nM.
On the same count and under the same terms, the same measure for `OC1(c2ccc(Cl)c(C(F)(F)F)c2)CCN(C2Cc3ccccc3C2)CC1`: 19 nM; for `OC1(c2ccc(Cl)cc2)CCN(CC2CCCCCCC2)CC1`: 626 nM.
Consider `OC1(c2cccc(C(F)(F)F)c2)CCN(CC2CCCCCCC2)CC1`, for which the Ki came out at 113 nM.
`OC1(c2cccc(C(F)(F)F)c2)CCN(CCC(c2ccccc2)c2ccccc2)CC1` yielded an inhibitory constant (Ki) of 1 nM.

Another assay deals with T3, Kappa-type opioid receptor. Briefly: Antagonistic activity against opioid receptor kappa 1. Type of assay: functional.
Conditions: not given
For `CC(C)C1CCC(N2CCC(O)(c3cccc(C(F)(F)F)c3)CC2)CC1` (configuration not stated), the inhibition constant Ki turned out to be 4150 nM.
In the case of `OC1(c2ccc(Cl)c(C(F)(F)F)c2)CCN(CC2CCCCCCC2)CC1`, the affinity, expressed as Ki, was 1650 nM.
`CCCC1CCC(N2CCC(O)(c3cccc(C(F)(F)F)c3)CC2)CC1` (configuration not stated) displayed a Ki of 6000 nM.
In turn, `OC1(c2cccc(C(F)(F)F)c2)CCN(CC2CCCCCCC2)CC1` had a Ki of 4240 nM.

The target in the next assay is T4, Delta-type opioid receptor (Homo sapiens, UniProt P41143). Briefly: Antagonistic activity against Opioid receptor delta 1. The assay is classed as functional.
T4 sequence (P41143 whole entry): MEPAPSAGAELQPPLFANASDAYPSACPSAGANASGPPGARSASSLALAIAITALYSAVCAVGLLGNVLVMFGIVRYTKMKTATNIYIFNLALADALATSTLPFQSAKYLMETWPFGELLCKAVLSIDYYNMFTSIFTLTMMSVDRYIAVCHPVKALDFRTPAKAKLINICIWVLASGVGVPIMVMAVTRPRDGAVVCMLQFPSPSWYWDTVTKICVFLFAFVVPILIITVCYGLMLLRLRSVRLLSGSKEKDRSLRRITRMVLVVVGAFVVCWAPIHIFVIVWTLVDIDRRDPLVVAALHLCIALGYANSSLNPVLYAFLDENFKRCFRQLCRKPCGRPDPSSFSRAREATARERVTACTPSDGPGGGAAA
Conditions: not given
Compound `CC(C)C1CCC(N2CCC(O)(c3ccc(Cl)c(C(F)(F)F)c3)CC2)CC1` (configuration not stated) had a Ki of 10000 nM.
`OC1(c2ccc(Cl)c(C(F)(F)F)c2)CCN(CC2CCCCCCC2)CC1` showed a Ki of 8780 nM.
`OC1(c2cccc(C(F)(F)F)c2)CCN(C2CCC3CCCCC3C2)CC1` (configuration not stated) displayed a Ki of 10000 nM.
`OC1(c2ccc(Cl)c(C(F)(F)F)c2)CCN(C2Cc3ccccc3C2)CC1` returned a Ki of 10000 nM.
`OC1(c2cccc(C(F)(F)F)c2)CCN(CCC(c2ccccc2)c2ccccc2)CC1` gave a Ki of 9390 nM.

Another assay deals with T4, Delta-type opioid receptor. Briefly: Antagonistic activity against Opioid receptor delta 1; not active. Type of assay: functional.
Conditions: not given
For the compound `CCCC1CCC(N2CCC(O)(c3cccc(C(F)(F)F)c3)CC2)CC1` (configuration not stated), the Ki entry is “Not Active”.
As to `OC1(c2ccc(Cl)c(C(F)(F)F)c2)CCN(CCC(c2ccccc2)c2ccccc2)CC1`, the Ki result is listed as “Not Active”.
With `OC1(c2ccc(Cl)cc2)CCN(CC2CCCCCCC2)CC1`, the Ki result was “Not Active”.
As to `OC1(c2cccc(C(F)(F)F)c2)CCN(CC2CCCCCCC2)CC1`, the Ki entry is “Not Active”.

A further assay deals with T1, Nociceptin receptor. Description: Inhibitory activity against human orphanin FQ receptor expressed in recombinant HEK 293 cells; inactive. Type of assay: cell-based. The following applies: HEK293.
In the case of `O=[N+]([O-])c1ccc(CN2CCC(O)(c3ccc(Cl)c(C(F)(F)F)c3)CC2)o1`, the inhibition result was “inactive”.
In the case of `Cc1ccc2ccccc2c1CN1CCC(C#N)(c2ccccc2)CC1`, the inhibition entry is “inactive”.

A further assay deals with T1, Nociceptin receptor. Briefly: Inhibitory activity against human orphanin FQ receptor expressed in recombinant HEK 293 cells. The assay is classed as cell-based. Details: concentration or dose not given beside the values. The conditions noted are these: HEK293; concentration not given here.
As to `N#CC1(c2ccccc2)CCN(Cc2ccc3ccccc3c2)CC1`, the inhibition stood at 70%.
As to `N#CC1(c2ccccc2)CCN(Cc2ccc(F)cc2)CC1`, the inhibition is 55%.
For `OC1(c2cccc(C(F)(F)F)c2)CCN(Cc2ccc3ccccc3c2)CC1`, the inhibition turned out to be 85%.
For `OC1(c2ccc(Cl)cc2)CCN(Cc2ccc(C(F)(F)F)cc2)CC1`, the inhibition came out at 85%.
Regarding `N#CC1(c2ccccc2)CCN(Cc2ccc(Cl)c(Cl)c2)CC1`, the inhibition came to 65%.
As to `N#CC1(c2ccccc2)CCN(Cc2cccc3ccccc23)CC1`, the inhibition is 55%.
Consider `OC1(c2ccc(Cl)c(C(F)(F)F)c2)CCN(Cc2ccc3ccccc3c2)CC1`, for which the inhibition amounted to 70%.
Turning to `OC1(c2cccc(C(F)(F)F)c2)CCN(Cc2ccc(F)cc2)CC1`, the inhibition came out at 80%.
As to `OC1(c2ccc(Cl)c(C(F)(F)F)c2)CCN(Cc2ccc(F)cc2)CC1`, the inhibition came to 90%.
Still for that read-out and setting: the same measure for `OC1(c2ccc(Cl)c(C(F)(F)F)c2)CCN(Cc2ccc(C(F)(F)F)cc2)CC1`: 55%.
On to `O=C(COCc1ccccc1)N1CCC(O)(c2ccc(Br)cc2)CC1`, for which the inhibition turned out to be 50%.
`OC1(c2ccc(Cl)cc2)CCN(Cc2ccc3ccccc3c2)CC1`: the inhibition amounted to 90%.
